Among the test systems are U251 CNS; T-47D breast; OVCAR-5 ovarian; MOLT-4 leukemia; SNB-19 CNS; HCC-2998 colon; COLO 205 colon; SR leukemia; OVCAR-8 ovarian; UACC-257 melanoma.
Holding throughout (experiment): NCI-60 cell line screen, 48 h

Molecules are shown by their SMILES.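 Exposure lasted 48 hours, with cells grown in 96-well plates and compounds tested at five concentrations. GI50 marks 50% less growth. TGI: total growth inhibition.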 *1 amine or outer side, *2 acyl side, *3 side chain or, on linkers, in order; H or OH if unused. Where a SMILES comes first, the peptide text is derived from it. Bridges are numbered along the chain shown (N, C = ends). Roman numbers before positions name the chains, in order. [ ]: non-standard residue; d: D form. Actinocin(9to1) = Cc1c2oc3c(C)ccc(C(=O)[*:1])c3nc-2c(C(=O)[*:2])c(N)c1=O; NMeV = CN[CH](C(=O)O)C(C)C; Sar = CNCC(=O)O

For the compound `CC(=Nc1ccccc1)C1=C(O)C(Cc2cccc(F)c2)NC1=O` (configuration not stated), the GI50 is 0.0702 µM in the experiment with U251 CNS; 0.0425 µM with T-47D breast; 0.253 µM in the experiment with OVCAR-5 ovarian; 0.158 µM in the experiment on MOLT-4 leukemia; 0.156 µM in the experiment on SNB-19 CNS; 0.144 µM with HCC-2998 colon. Besides, the GI50 in the experiment with COLO 205 colon is 0.035 µM; in the experiment on SR leukemia, 0.0239 µM; with OVCAR-8 ovarian, 0.122 µM. For the same compound, the TGI in the experiment on U251 CNS was greater than 100 µM; in the experiment on T-47D breast, greater than 100 µM; in the experiment on OVCAR-5 ovarian, greater than 100 µM; with MOLT-4 leukemia, greater than 100 µM; with SNB-19 CNS it was greater than 100 µM; in the experiment with HCC-2998 colon it was 3.1 µM. The TGI with COLO 205 colon was 0.141 µM; in the experiment on SR leukemia, greater than 72.8 µM; in the experiment with OVCAR-8 ovarian it was greater than 100 µM.

`COc1ccc(OC)c(NC(=O)c2cccc(NC3=C(Cl)C(=O)N(Cc4ccccc4)C3=O)c2)c1`: the GI50 with U251 CNS is greater than 100 µM; with T-47D breast it was greater than 100 µM; with OVCAR-5 ovarian, greater than 73 µM; in the experiment on MOLT-4 leukemia, 7.66 µM; in the experiment with SNB-19 CNS it was greater than 100 µM; in the experiment on UACC-257 melanoma, 23.5 µM. Also, the GI50 is 70.4 µM in the experiment with HCC-2998 colon, greater than 100 µM in the experiment on COLO 205 colon, 7.8 µM with SR leukemia and greater than 76.8 µM with OVCAR-8 ovarian. Also, the TGI in the experiment with U251 CNS, in the experiment on T-47D breast, in the experiment with OVCAR-5 ovarian, in the experiment on MOLT-4 leukemia, in the experiment with SNB-19 CNS and in the experiment on UACC-257 melanoma was greater than 100 µM in each case. Besides, the TGI in the experiment on HCC-2998 colon is greater than 100 µM; with COLO 205 colon it was greater than 100 µM; in the experiment on SR leukemia, greater than 87.6 µM; in the experiment with OVCAR-8 ovarian, greater than 100 µM.

`Cc1c(NC(=O)CCl)c(=O)oc2c(C)c3occc(=O)c3cc12`: the TGI in the experiment with U251 CNS came out at 27.5 µM; in the experiment on T-47D breast it was 66.3 µM; with OVCAR-5 ovarian, 32.4 µM; with MOLT-4 leukemia, 17.9 µM; in the experiment on SNB-19 CNS, 33.6 µM; in the experiment on UACC-257 melanoma, 34 µM. Besides, the TGI with HCC-2998 colon turned out to be 32.8 µM; in the experiment with COLO 205 colon, 40 µM; in the experiment with SR leukemia, 58 µM; with OVCAR-8 ovarian, 43.2 µM.

On to `CC(CN1CC(=O)NC(=O)C1)N1CC(=O)NC(=O)C1` (configuration not stated), for which the TGI was greater than 750 µM in the experiment on U251 CNS; greater than 750 µM in the experiment on T-47D breast; 749 µM in the experiment on OVCAR-5 ovarian; greater than 750 µM in the experiment with MOLT-4 leukemia; greater than 750 µM in the experiment with SNB-19 CNS; greater than 750 µM in the experiment on UACC-257 melanoma. Besides, the TGI with HCC-2998 colon is greater than 750 µM; in the experiment on COLO 205 colon, 443 µM; with SR leukemia, greater than 750 µM; with OVCAR-8 ovarian it was greater than 750 µM. In addition, the GI50 in the experiment on COLO 205 colon is 25.3 µM.

Consider `Cc1cc(C(=O)Nc2cc(Oc3ccc4nc(NC(=O)C5CC5)cn4n3)ccc2C)n(C)n1`, for which the GI50 in the experiment with U251 CNS, in the experiment with T-47D breast, in the experiment with OVCAR-5 ovarian, with MOLT-4 leukemia, with SNB-19 CNS and in the experiment on UACC-257 melanoma was greater than 10 µM in each case. Besides, the GI50 in the experiment with HCC-2998 colon is greater than 10 µM; with COLO 205 colon it was greater than 10 µM; in the experiment on SR leukemia, 2.26 µM; in the experiment on OVCAR-8 ovarian, greater than 10 µM. The TGI in the experiment on U251 CNS, with T-47D breast, in the experiment on OVCAR-5 ovarian, in the experiment on MOLT-4 leukemia, in the experiment with SNB-19 CNS and in the experiment on UACC-257 melanoma was greater than 10 µM each time. Moreover, the TGI with HCC-2998 colon, in the experiment with COLO 205 colon, in the experiment with SR leukemia and with OVCAR-8 ovarian was greater than 10 µM each time.

As to `O=C1CSC(c2ccc(-c3nc4ccccc4[nH]3)cc2)=N1`, the GI50 is 17.4 µM with U251 CNS; greater than 50 µM with T-47D breast; greater than 50 µM in the experiment on OVCAR-5 ovarian; greater than 50 µM with SNB-19 CNS; 20.3 µM in the experiment with UACC-257 melanoma; 16.3 µM in the experiment with HCC-2998 colon. Besides, the GI50 in the experiment with COLO 205 colon was greater than 50 µM; with SR leukemia, 5.7 µM; in the experiment on OVCAR-8 ovarian it was 23 µM. Moreover, the TGI in the experiment on U251 CNS, in the experiment with T-47D breast, in the experiment on OVCAR-5 ovarian, with SNB-19 CNS, in the experiment on UACC-257 melanoma and with HCC-2998 colon was greater than 50 µM in each case. Also, the TGI in the experiment with COLO 205 colon, in the experiment on SR leukemia and in the experiment with OVCAR-8 ovarian was greater than 50 µM each time.

As for `COC12C=C/C(=C(/C(=O)OCCSc3ccnn3C)C(=O)CCCCCCCCC3(OC)C=C/C(=C(/C(=O)OCCSc4ccnn4C)C(=O)CCCCCCCC1)O3)O2`, the GI50 with U251 CNS was 0.979 µM; with T-47D breast it was 1.26 µM; in the experiment on OVCAR-5 ovarian, 1.73 µM; in the experiment on SNB-19 CNS it was 1.88 µM; in the experiment with UACC-257 melanoma, 1.35 µM; in the experiment on HCC-2998 colon, 0.584 µM. Moreover, the results for the GI50 in the experiment on COLO 205 colon, in the experiment on SR leukemia and in the experiment with OVCAR-8 ovarian were 0.814 µM, 0.886 µM and 1 µM, respectively. In addition, the TGI was 3.32 µM with U251 CNS; greater than 32.5 µM in the experiment with T-47D breast; greater than 32.5 µM in the experiment with OVCAR-5 ovarian; greater than 32.5 µM in the experiment on SNB-19 CNS; 11.4 µM in the experiment with UACC-257 melanoma; 1.11 µM in the experiment on HCC-2998 colon. For the same compound, the values for the TGI in the experiment on COLO 205 colon, with SR leukemia and with OVCAR-8 ovarian were 2.15 µM, greater than 32.5 µM and 6.79 µM, respectively.

As to `O=C(O)C1CCN(Cc2oc(CO)cc(=O)c2O)C1` (configuration not stated), the TGI in the experiment on U251 CNS, with T-47D breast, with OVCAR-5 ovarian, in the experiment with MOLT-4 leukemia, with SNB-19 CNS and with UACC-257 melanoma was greater than 100 µM each time. Also, the TGI in the experiment on COLO 205 colon, in the experiment with SR leukemia and in the experiment on OVCAR-8 ovarian was greater than 100 µM throughout.

Regarding `O=C(O)/C=C/c1ccc[c]([Sb](=[O])([OH])[OH])c1`, the GI50 in the experiment on U251 CNS, in the experiment on T-47D breast, with OVCAR-5 ovarian, with MOLT-4 leukemia, in the experiment with SNB-19 CNS and with UACC-257 melanoma was greater than 100 µM each time. The GI50 in the experiment on HCC-2998 colon, in the experiment with SR leukemia and in the experiment with OVCAR-8 ovarian was greater than 100 µM throughout. The TGI in the experiment with U251 CNS, with T-47D breast, in the experiment with OVCAR-5 ovarian, with MOLT-4 leukemia, in the experiment with SNB-19 CNS and in the experiment on UACC-257 melanoma was greater than 100 µM each time. The TGI with HCC-2998 colon, with SR leukemia and in the experiment with OVCAR-8 ovarian was greater than 100 µM throughout.

For the compound `Cc1c2oc3c(C)ccc(C(=O)OC(C)C4NC(=O)C(C(C)C)N(C)C(=O)CN(C)C(=O)C5CCCN5C(=O)C(C(C)C)NC4=O)c3nc-2c(C(=O)OC(C)C2NC(=O)C(C(C)C)N(C)C(=O)CN(C)C(=O)C3CCCN3C(=O)C(C(C)C)NC2=O)c(N)c1=O` (configuration not stated) (I: cyclo([Sar][NMeV]TVP) / II: cyclo([Sar][NMeV]TVP); linker I:3-II:3 via Actinocin(9to1); configuration not given here), the GI50 in the experiment with U251 CNS was less than 0.01 µM; in the experiment on T-47D breast, less than 0.01 µM; in the experiment with OVCAR-5 ovarian, 0.0114 µM; in the experiment with MOLT-4 leukemia it was less than 0.01 µM; in the experiment with SNB-19 CNS, less than 0.01 µM; with UACC-257 melanoma it was less than 0.01 µM. Moreover, the GI50 in the experiment on COLO 205 colon, with SR leukemia and in the experiment with OVCAR-8 ovarian was less than 0.01 µM each time. Further, the TGI in the experiment with T-47D breast is greater than 100 µM; in the experiment with OVCAR-5 ovarian it was 21.6 µM; with SNB-19 CNS, greater than 55.5 µM; with COLO 205 colon, 0.0163 µM; in the experiment on SR leukemia it was greater than 100 µM.

Consider `O=C1OCC(c2ccc(O)cc2)=C1c1cc(O)c(O)c(O)c1`, for which the GI50 in the experiment with U251 CNS is 31.4 µM; with T-47D breast it was greater than 100 µM; with OVCAR-5 ovarian it was 55.6 µM; in the experiment with MOLT-4 leukemia, greater than 100 µM; in the experiment on SNB-19 CNS, greater than 100 µM; in the experiment on UACC-257 melanoma it was greater than 100 µM. In addition, the GI50 in the experiment on COLO 205 colon is greater than 100 µM; with SR leukemia it was 20.7 µM; with OVCAR-8 ovarian, greater than 100 µM. Further, the TGI in the experiment on U251 CNS, with T-47D breast, in the experiment on OVCAR-5 ovarian, in the experiment with MOLT-4 leukemia, with SNB-19 CNS and in the experiment on UACC-257 melanoma was greater than 100 µM in each case. Besides, the TGI with COLO 205 colon, with SR leukemia and in the experiment with OVCAR-8 ovarian was greater than 100 µM in each case.

As to `Cc1cn(CCC(N)C(=O)O)c(=O)[nH]c1=O` (configuration not stated), the TGI in the experiment on U251 CNS, with T-47D breast, with OVCAR-5 ovarian, in the experiment on MOLT-4 leukemia, in the experiment with SNB-19 CNS and in the experiment with UACC-257 melanoma was greater than 100 µM each time. The TGI in the experiment on COLO 205 colon, in the experiment with SR leukemia and in the experiment on OVCAR-8 ovarian was greater than 100 µM throughout.

With `CCn1c(-c2c(Cl)cc(O)cc2Cl)cc2c(Cl)cc(O)cc21`, the TGI in the experiment with U251 CNS was 17 µM; in the experiment with T-47D breast, 27.4 µM; with OVCAR-5 ovarian, 65 µM; with MOLT-4 leukemia, greater than 100 µM; with SNB-19 CNS, 28.3 µM; in the experiment with UACC-257 melanoma, 26 µM. The TGI in the experiment with COLO 205 colon was 36.8 µM; in the experiment with SR leukemia, greater than 100 µM; in the experiment with OVCAR-8 ovarian, 18.7 µM.

Source of the values: PubChem BioAssay (NCI).
